Patent US9758561B2 (priority 2014, dated 2017)
≈ marks a conversion by molar mass, not a printed value. Read-outs that look alike come from different tables or passages of the source.

Assays:
[1] = molecular target: T1, human GIP receptor (Homo sapiens, UniProt P48546); assay: cAMP response of HEK-293 cells stably expressing human GIP receptor (HTRF); assay type: cell-based; settings: Table 6; read-out: EC50 hGIP-R
T1 construct: expressed in transfected cells; host or cells: HEK-293
T1 sequence (P48546 22-466): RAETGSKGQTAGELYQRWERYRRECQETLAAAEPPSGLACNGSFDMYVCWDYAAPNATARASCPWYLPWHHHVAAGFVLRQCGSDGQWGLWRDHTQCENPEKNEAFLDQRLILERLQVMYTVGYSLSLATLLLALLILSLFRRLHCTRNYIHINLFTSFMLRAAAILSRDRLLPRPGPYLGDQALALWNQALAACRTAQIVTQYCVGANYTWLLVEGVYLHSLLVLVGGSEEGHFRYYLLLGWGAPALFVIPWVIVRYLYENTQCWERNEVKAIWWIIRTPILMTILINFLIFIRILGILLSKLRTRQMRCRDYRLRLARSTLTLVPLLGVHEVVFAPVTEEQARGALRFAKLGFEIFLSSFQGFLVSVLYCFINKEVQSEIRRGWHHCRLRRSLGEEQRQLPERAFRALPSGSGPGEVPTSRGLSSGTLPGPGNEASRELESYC
Description: (§1) For preparation, cells were split into T175 culture flasks and grown overnight to near confluency in medium (DMEM/10% FBS). Medium was then removed and cells washed with PBS lacking calcium and magnesium, followed by proteinase treatment with accutase (Sigma-Aldrich cat. no. A6964). Detached cells were washed and resuspended in assay buffer (1×HBSS; 20 mM HEPES, 0.1% BSA, 2 mM IBMX) and cellular density determined. They were then diluted to 400000 cells/ml and 25 μl-aliquots dispensed into the wells of 96-well plates. For measurement, 25 μl of test compound in assay buffer was added to the wells, followed by incubation for 30 minutes at room temperature. […] Potencies of peptidic compounds at the GLP-1, glucagon and GIP receptors were determined by exposing cells expressing human glucagon receptor (hGlucagon R), human GIP receptor (hGIP-R) or human GLP-1 receptor (hGLP-1R) to the listed compounds at increasing concentrations and measuring the formed cAMP as described in Methods.

[2] = test system: female diet-induced obese (DIO) C57BL/6 mice; assay: Chronic effect on body weight and body fat in female DIO C57BL/6 mice; assay type: in vivo; settings: 50 μg/kg bid s.c., 4 weeks; for Body fat change: NMR; for Body fat change / Overall weight change: mean ± SEM
Description: (§2) C57BL/6 Harlan mice are housed in groups in a specific pathogen-free barrier facility on a 12 h light/dark cycle with free access to water and standard or high-fat diet. After prefeeding on high-fat diet, mice are stratified to treatment groups (n=8), so that each group has similar mean body weight. An age-matched group with ad-libitum access to standard chow is included as standard control group. Before the experiment, mice are subcutaneously (s.c.) injected with vehicle solution and weighed for 3 days to acclimate them to the procedures.
Body weight is recorded daily. Two days before start of treatment and on day 26, total fat mass is measured by nuclear magnetic resonance (NMR).
(§3) Statistical analyses are performed with Everstat 6.0 by repeated measures two-way ANOVA and Dunnetts post-hoc analyses (glucose profile) and 1-way-ANOVA, followed by Dunnetts post-hoc test (body weight, body fat). Differences versus vehicle-treated DIO control mice are considered statistically significant at the p<0.05 level.
Female obese C57BL/6 mice were treated for 4 weeks twice daily subcutaneously with 50 μg/kg SEQ ID NO: 6, 50 μg/kg SEQ ID NO: 7 or vehicle. Body weight was recorded daily, and body fat content was determined before the start and after 4 weeks of treatment. […] These changes resulted from a decrease in body fat, as shown by the absolute changes in body fat content (Table 10, FIG. 3).
Female obese C57BL/6 mice were treated for 4 weeks twice daily subcutaneously with 50 μg/kg SEQ ID NO: 9 or vehicle. Body weight was recorded daily, and body fat content was determined before the start and after 4 weeks of treatment.

[3] = molecular target: T2, human glucagon receptor (Homo sapiens, UniProt P47871); assay: cAMP response of HEK-293 cells stably expressing human glucagon receptor (HTRF); assay type: cell-based; settings: Table 6; read-out: EC50 hGlucagon-R
T2 construct: expressed in transfected cells; host or cells: HEK-293
T2 sequence (P47871 26-477): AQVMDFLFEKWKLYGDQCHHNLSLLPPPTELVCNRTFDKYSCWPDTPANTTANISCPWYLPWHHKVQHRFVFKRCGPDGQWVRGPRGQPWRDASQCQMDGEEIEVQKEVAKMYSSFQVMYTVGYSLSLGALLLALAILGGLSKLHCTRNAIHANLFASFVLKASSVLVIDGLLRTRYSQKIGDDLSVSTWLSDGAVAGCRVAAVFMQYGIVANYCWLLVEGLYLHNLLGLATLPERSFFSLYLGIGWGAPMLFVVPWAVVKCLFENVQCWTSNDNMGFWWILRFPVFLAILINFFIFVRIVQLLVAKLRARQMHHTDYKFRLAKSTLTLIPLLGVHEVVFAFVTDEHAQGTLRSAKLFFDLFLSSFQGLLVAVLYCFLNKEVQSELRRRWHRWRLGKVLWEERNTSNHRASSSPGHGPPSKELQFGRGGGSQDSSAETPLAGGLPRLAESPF
Description: as §1

[4] = molecular target: T3, human GLP-1 receptor (Homo sapiens, UniProt P43220); assay: cAMP response of HEK-293 cells stably expressing human GLP-1 receptor (HTRF); assay type: cell-based; settings: Table 6; read-out: EC50 hGLP-1R
T3 construct: expressed in transfected cells; host or cells: HEK-293
T3 sequence (P43220 24-463): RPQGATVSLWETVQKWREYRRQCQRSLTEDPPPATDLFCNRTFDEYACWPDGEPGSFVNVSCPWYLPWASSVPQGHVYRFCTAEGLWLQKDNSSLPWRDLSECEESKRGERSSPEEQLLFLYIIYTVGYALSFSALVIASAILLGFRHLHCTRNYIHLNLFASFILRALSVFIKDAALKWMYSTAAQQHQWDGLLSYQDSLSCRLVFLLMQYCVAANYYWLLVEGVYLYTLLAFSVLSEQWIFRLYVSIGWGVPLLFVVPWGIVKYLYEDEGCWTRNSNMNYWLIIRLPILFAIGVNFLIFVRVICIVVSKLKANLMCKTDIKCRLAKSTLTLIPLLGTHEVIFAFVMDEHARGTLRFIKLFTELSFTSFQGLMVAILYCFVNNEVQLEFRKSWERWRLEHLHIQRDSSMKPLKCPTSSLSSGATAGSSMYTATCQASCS
How it was run: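 HEK-293 cells stably expressing the receptor were taken up in HBSS/20 mM HEPES/0.1% BSA with 2 mM IBMX at 400000 cells/ml. They were exposed to increasing concentrations of peptide for 30 minutes at room temperature, and formed cAMP was measured by HTRF.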

[5] = Stability testing in solution, 7 days at 40° C. (HPLC-UV); assay type: physicochemical; settings: for Stability pH 4.5: pH 4.5, 7 days at 40° C. in solution; for Stability pH 7.4: pH 7.4, 7 days at 40° C. in solution
Description: After that time course, the sample was centrifuged for 20 min at 4500 rpm and 0.2 μL of the supernatant were analysed with HPLC-UV.
For determination of the amount of the remaining peptide, the peak areas of the target compound at t0 and t7 were compared, resulting in “% remaining peptide”, following the equation % remaining peptide=[(peak area peptide t7)×100]/peak area peptide t0.
The stability is expressed as “% remaining peptide”.

[6] = Solubility testing in buffer (HPLC-UV); assay type: physicochemical
Description: Prior to the testing of solubility and stability of a peptide batch, its purity (HPLC-UV) was determined. […] Therefore, solutions from solid samples were prepared in different buffer systems with a concentration of 10 mg/mL compound based on the previously determined % purity. HPLC-UV was performed after 2 h of gentle agitation from the supernatant, which was obtained by 20 min of centrifugation at 4500 rpm. […] This analysis also served as starting point (t0) for the stability testing.

[7] = test system: female diet-induced obese (DIO) C57BL/6 mice; assay: Acute effect on blood glucose in fed female DIO C57BL/6 mice; assay type: in vivo; settings: 50 μg/kg s.c., profile over 24 h
Description: as §2
The volume of administration is 5 mL/kg. The animals have access to water and their corresponding diet during the experiment. Blood glucose levels are measured at t=0 h, t=1 h, t=2 h, t=3 h, t=4 h, t=6 h and t=24 h (method: Accu-Check glucometer). Blood sampling is performed by tail incision without anaesthesia.
as §3, with “level. […]” for “level.”

[8] = Pharmacokinetic testing in mice, 1 mg/kg s.c. (LC/MS); assay type: in vivo; settings: mouse, plasma, sc
Description: Mice were dosed 1 mg/kg subcutaneously (s.c.). The mice were sacrificed and blood samples were collected after 0.25, 0.5, 1, 2, 4, 8, 16 and 24 hours post application. Plasma samples were analyzed after protein precipitation via liquid chromatography mass spectrometry (LC/MS). PK parameters and half-life were calculated using WinonLin Version 5.2.1 (non-compartment model).

[9] = pH 4.5, target concentration 10 mg/ml, read-out: solubility pH 4.5
[10] = pH 7.4, target concentration 10 mg/ml, read-out: solubility pH 7.4

Compound	EC50 [1]	daily body weight compared to vehicle DIO control mice [2]	Body fat change ([2]; Table 10 (Example 7))	Overall weight change ([2]; Table 10 (Example 7))	EC50 [3]	EC50 [4]	Stability pH 4.5 [5]	Stability pH 7.4 [5]	solubility at 2 h [6, 9]	solubility at 2 h [6, 10]	Body fat change ([2]; Table 11 (Example 8))	Overall weight change ([2]; Table 11 (Example 8))	blood glucose compared to DIO control [7]	Cmax [8]	half-life [8]
CCCCCCCCCCCCCCCC(=O)N[C@@H](CCC(=O)N[C@@H](CCC(=O)NCCCC[C@H](NC(=O)[C@H](CCC(N)=O)NC(=O)[C@H](CCCCN)NC(=O)[C@H](CO)NC(=O)[C@H](CC(C)C)NC(=O)[C@H](CC(=O)O)NC(=O)[C@H](CO)NC(=O)[C@@H](NC(=O)[C@H](Cc1ccccc1)NC(=O)[C@@H](NC(=O)CNC(=O)[C@H](Cc1c[nH]cn1)NC(=O)[C@@H](CO)NC(=O)[C@@H](N)Cc1c[nH]cn1)[C@@H](C)O)[C@@H](C)O)C(=O)N[C@@H](CCC(=O)O)C(=O)N[C@@H](CCC(=O)O)C(=O)N[C@@H](CCC(=O)O)C(=O)N[C@@H](C)C(=O)N[C@@H](C)C(=O)N[C@@H](CCCNC(=N)N)C(=O)N[C@@H](CC(C)C)C(=O)N[C@@H](Cc1ccccc1)C(=O)N[C@H](C(=O)N[C@@H](CCC(=O)O)C(=O)N[C@@H](Cc1c[nH]c2ccccc12)C(=O)N[C@@H](CC(C)C)C(=O)NC(C)(C)C(=O)N[C@@H](C)C(=O)NCC(=O)NCC(=O)N1CCC[C@H]1C(=O)N[C@@H](CO)C(=O)N[C@@H](CO)C(=O)NCC(=O)N[C@@H](C)C(=O)N1CCC[C@H]1C(=O)N1CCC[C@H]1C(=O)N1CCC[C@H]1C(=O)N[C@@H](CO)C(N)=O)[C@@H](C)CC)C(=O)O)C(=O)O [SEQ ID NO: 6, H-dSer-H-G-T-F-T-S-D-L-S-K-Q-K(γE-γE-x53)-E-E-E-A-A-R-L-F-I-E-W-L-Aib-A-G-G-P-S-S-G-A-P-P-P-S-NH2]	1.54 nM	decrease in daily body weight	-4.64 ± 0.4 g	-6.08 ± 0.6 g	0.0177 nM	0.0026 nM	100.0 % remaining peptide	92.0 % remaining peptide	> 8000 µg/mL	> 8000 µg/mL	–	–	–	–	–
CCCCCCCCCCCCCCCC(=O)N[C@@H](CCC(=O)N[C@@H](CCC(=O)NCCCC[C@H](NC(=O)[C@H](CCC(N)=O)NC(=O)[C@H](CCCCN)NC(=O)[C@H](CO)NC(=O)[C@H](CC(C)C)NC(=O)[C@H](CC(=O)O)NC(=O)[C@H](CO)NC(=O)[C@@H](NC(=O)[C@H](Cc1ccccc1)NC(=O)[C@@H](NC(=O)CNC(=O)[C@H](CCC(N)=O)NC(=O)[C@@H](CO)NC(=O)[C@@H](N)Cc1c[nH]cn1)[C@@H](C)O)[C@@H](C)O)C(=O)N[C@@H](CC(=O)O)C(=O)N[C@@H](CCC(=O)O)C(=O)N[C@@H](CCC(=O)O)C(=O)N[C@@H](C)C(=O)N[C@@H](C)C(=O)N[C@@H](CCCNC(=N)N)C(=O)N[C@@H](CC(C)C)C(=O)N[C@@H](Cc1ccccc1)C(=O)N[C@H](C(=O)N[C@@H](CCC(=O)O)C(=O)N[C@@H](Cc1c[nH]c2ccccc12)C(=O)N[C@@H](CC(C)C)C(=O)NC(C)(C)C(=O)N[C@@H](C)C(=O)NCC(=O)NCC(=O)N1CCC[C@H]1C(=O)N[C@@H](CO)C(=O)N[C@@H](CO)C(=O)NCC(=O)N[C@@H](C)C(=O)N1CCC[C@H]1C(=O)N1CCC[C@H]1C(=O)N1CCC[C@H]1C(=O)N[C@@H](CO)C(N)=O)[C@@H](C)CC)C(=O)O)C(=O)O [SEQ ID NO: 9, H-dSer-Q-G-T-F-T-S-D-L-S-K-Q-K(γE-γE-x53)-D-E-E-A-A-R-L-F-I-E-W-L-Aib-A-G-G-P-S-S-G-A-P-P-P-S-NH2]	3.6 nM	decrease in daily body weight	–	–	0.0118 nM	0.0018 nM	77.0 % remaining peptide	93.0 % remaining peptide	2200 µg/mL (≈ 480 µM)	> 8000 µg/mL	-5.65 ± 0.9 g	-6.56 ± 1.0 g	decrease in blood glucose	6560 ng/mL	3.8 h
CCCCCCCCCCCCCCCC(=O)N[C@@H](CCC(=O)N[C@@H](CCC(=O)NCCCC[C@H](NC(=O)[C@H](CCC(N)=O)NC(=O)[C@H](CCCCN)NC(=O)[C@H](CO)NC(=O)[C@H](CC(C)C)NC(=O)[C@H](CC(=O)O)NC(=O)[C@H](CO)NC(=O)[C@@H](NC(=O)[C@H](Cc1ccccc1)NC(=O)[C@@H](NC(=O)CNC(=O)[C@H](Cc1c[nH]cn1)NC(=O)[C@@H](CO)NC(=O)[C@@H](N)Cc1c[nH]cn1)[C@@H](C)O)[C@@H](C)O)C(=O)N[C@@H](CC(=O)O)C(=O)N[C@@H](CCC(=O)O)C(=O)N[C@@H](CCC(=O)O)C(=O)N[C@@H](C)C(=O)N[C@@H](C)C(=O)N[C@@H](CCCNC(=N)N)C(=O)N[C@@H](CC(C)C)C(=O)N[C@@H](Cc1ccccc1)C(=O)N[C@H](C(=O)N[C@@H](CCC(=O)O)C(=O)N[C@@H](Cc1c[nH]c2ccccc12)C(=O)N[C@@H](CC(C)C)C(=O)NC(C)(C)C(=O)N[C@@H](C)C(=O)NCC(=O)NCC(=O)N1CCC[C@H]1C(=O)N[C@@H](CO)C(=O)N[C@@H](CO)C(=O)NCC(=O)N[C@@H](C)C(=O)N1CCC[C@H]1C(=O)N1CCC[C@H]1C(=O)N1CCC[C@H]1C(=O)N[C@@H](CO)C(N)=O)[C@@H](C)CC)C(=O)O)C(=O)O [SEQ ID NO: 7, H-dSer-H-G-T-F-T-S-D-L-S-K-Q-K(γE-γE-x53)-D-E-E-A-A-R-L-F-I-E-W-L-Aib-A-G-G-P-S-S-G-A-P-P-P-S-NH2]	0.908 nM	decrease in daily body weight	-5.12 ± 0.6 g	-7.25 ± 0.7 g	0.009 nM	0.0015 nM	100.0 % remaining peptide	90.0 % remaining peptide	2200 µg/mL (≈ 479 µM)	> 8000 µg/mL	–	–	–	–	–
